Measured values reported in patent publication EP2127643A1, “Oral pellet composition with time-delayed release” (Bayer Schering Pharma Aktiengesellschaft, priority 2008, dated 2009).
Like-named read-outs stand apart in the source and are kept apart here.

Columns and labels:
[1] = human, cited from earlier work
CYP-2C9 = CYP-2C9 (Homo sapiens, UniProt P11712); assay: CYP test: inhibition of cytochrome P450 isoenzymes by excipients; assay type: biochemical
CYP-2C19 = CYP-2C19 (Homo sapiens, UniProt P33261); assay: as above; assay type: biochemical
Sequence of CYP-2C19 (P33261 whole entry): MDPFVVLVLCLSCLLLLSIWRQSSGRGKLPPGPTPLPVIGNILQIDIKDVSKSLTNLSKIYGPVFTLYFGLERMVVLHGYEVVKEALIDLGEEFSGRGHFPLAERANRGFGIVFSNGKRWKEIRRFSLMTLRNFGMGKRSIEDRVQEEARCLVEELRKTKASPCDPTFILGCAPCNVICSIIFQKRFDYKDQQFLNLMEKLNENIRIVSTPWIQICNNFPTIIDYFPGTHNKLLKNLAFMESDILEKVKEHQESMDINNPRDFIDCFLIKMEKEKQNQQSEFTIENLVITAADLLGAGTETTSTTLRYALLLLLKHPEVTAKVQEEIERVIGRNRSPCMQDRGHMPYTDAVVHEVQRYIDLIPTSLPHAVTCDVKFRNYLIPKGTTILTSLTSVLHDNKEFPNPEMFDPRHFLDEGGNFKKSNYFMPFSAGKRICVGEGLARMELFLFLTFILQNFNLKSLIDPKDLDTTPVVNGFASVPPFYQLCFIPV

CYP-3A4 = CYP-3A4 (Homo sapiens, UniProt P08684); assay: as above; assay type: biochemical
Sequence of CYP-3A4 (P08684 whole entry): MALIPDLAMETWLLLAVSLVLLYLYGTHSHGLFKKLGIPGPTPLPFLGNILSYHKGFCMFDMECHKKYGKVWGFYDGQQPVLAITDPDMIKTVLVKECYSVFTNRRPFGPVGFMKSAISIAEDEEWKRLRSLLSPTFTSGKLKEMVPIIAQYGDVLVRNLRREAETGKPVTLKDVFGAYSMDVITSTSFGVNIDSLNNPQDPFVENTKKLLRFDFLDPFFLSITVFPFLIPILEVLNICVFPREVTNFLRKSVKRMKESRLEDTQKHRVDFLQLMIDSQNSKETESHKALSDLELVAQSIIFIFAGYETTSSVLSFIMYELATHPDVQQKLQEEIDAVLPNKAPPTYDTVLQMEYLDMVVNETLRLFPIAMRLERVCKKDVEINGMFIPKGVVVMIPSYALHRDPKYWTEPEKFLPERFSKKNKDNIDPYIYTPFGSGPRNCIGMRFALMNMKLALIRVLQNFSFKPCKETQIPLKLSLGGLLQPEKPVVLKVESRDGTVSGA

[2] = rats; paclitaxel oral 30 min after oral morin; cited from earlier work
[3] = human; oral paclitaxel with simultaneous cyclosporin (Pgp inhibitor); cited from earlier work
[4] = concentration of excipient at which 50 % of the isoenzyme is inhibited

Sequence of CYP-2C9 (P11712 whole entry): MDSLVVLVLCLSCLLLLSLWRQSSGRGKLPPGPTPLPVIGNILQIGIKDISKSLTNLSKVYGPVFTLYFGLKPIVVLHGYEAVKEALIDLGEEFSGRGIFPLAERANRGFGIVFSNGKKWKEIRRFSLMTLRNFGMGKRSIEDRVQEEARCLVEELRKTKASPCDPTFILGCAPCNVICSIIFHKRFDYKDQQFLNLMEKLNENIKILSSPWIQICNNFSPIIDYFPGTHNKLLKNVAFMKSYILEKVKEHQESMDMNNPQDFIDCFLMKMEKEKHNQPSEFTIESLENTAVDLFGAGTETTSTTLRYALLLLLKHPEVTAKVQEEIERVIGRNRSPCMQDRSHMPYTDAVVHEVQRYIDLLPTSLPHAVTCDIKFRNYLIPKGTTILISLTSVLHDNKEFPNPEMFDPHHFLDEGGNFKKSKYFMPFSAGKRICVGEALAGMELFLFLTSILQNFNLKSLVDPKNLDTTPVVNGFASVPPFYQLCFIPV

C#C[C@]1(O)CC[C@H]2[C@@H]3CCc4cc(O)ccc4[C@H]3CC[C@@]21C [Ethinylestradiol]
Anteil des beobachteten First-Pass-Effekts durch direkte Konjugation (vor allem Sulfatierung in der Darmwand) ([1]; gut wall): 65%
humane absolute Bioverfügbarkeit ([1]; oral): ~45%

CCCCCCCC/C=C\CCCCCCCC(=O)OCC [Ethyloleat]
IC50 (CYP-2C9): 0.628 mM
IC50 (CYP-2C19): 1.05 mM
IC50 (CYP-3A4): 0.377 mM

CC(=O)O[C@H]1C(=O)[C@@]2(C)[C@H]([C@H](OC(=O)c3ccccc3)[C@]3(O)C[C@H](OC(=O)[C@H](O)[C@@H](NC(=O)c4ccccc4)c4ccccc4)C(C)=C1C3(C)C)[C@]1(OC(C)=O)CO[C@@H]1C[C@@H]2O [Paclitaxel]
Erhöhung der AUC [2]: ≤ 70%
Bioverfügbarkeit erhöht um Faktor [3]: 9

CCOCCOCCO [Transcutol®P, Ethoxydiglycol]
IC50 (CYP-2C9; concentration of excipient at which 50 % of the isoenzyme is inhibited, read-out: IC50, µg/ml CYP-2C9 (converted)): 11.2 mM
IC50 (CYP-2C19; concentration of excipient at which 50 % of the isoenzyme is inhibited, read-out: IC50, µg/ml CYP-2C19 (converted)): 10.4 mM
IC50 (CYP-3A4; concentration of excipient at which 50 % of the isoenzyme is inhibited, read-out: IC50, µg/ml CYP-3A4 (converted)): 5.63 mM

Glycerolmonocaprylat [Imwitor®308]
IC50, µg/ml CYP-2C9 (CYP-2C9; [4]): 5,0 µg/ml
IC50, µg/ml CYP-2C19 (CYP-2C19; [4]): 6,9 µg/ml
IC50, µg/ml CYP-3A4 (CYP-3A4; [4]): 29 µg/mL
